The text below walks through data of PMC5785997, “2-Phenylquinazolinones as dual-activity tankyrase-kinase inhibitors” (Scientific Reports, 2018).

Assay [1] concerns the target ARTD5/TNKS1 (Homo sapiens, UniProt O95271). The experiment in a line: NAD+ quantification activity assay, TNKS1. It is filed as biochemical. The settings on record: NAD+ 500 nM. The procedure: (§1) Protein (nM) NAD+ (nM) Incubation Buffer
(§2) Kinase [ATP] Substrate Incubation Reaction buffer

Assay [2] concerns the target T1, ARTD10/PARP10 (Homo sapiens, UniProt Q53GL7).
T1 sequence (Q53GL7 806-1025 limits assumed): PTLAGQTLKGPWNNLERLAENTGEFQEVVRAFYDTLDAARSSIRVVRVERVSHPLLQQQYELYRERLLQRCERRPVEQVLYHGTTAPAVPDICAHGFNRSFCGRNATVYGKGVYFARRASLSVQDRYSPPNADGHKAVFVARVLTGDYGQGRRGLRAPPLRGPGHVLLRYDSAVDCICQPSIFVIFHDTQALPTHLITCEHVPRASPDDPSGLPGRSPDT
Briefly: ARTD profiling, ARTD10.

In assay [3] the target is T2, ARTD15/PARP16 (Homo sapiens, UniProt Q8N5Y8).
T2 sequence (Q8N5Y8 1-322): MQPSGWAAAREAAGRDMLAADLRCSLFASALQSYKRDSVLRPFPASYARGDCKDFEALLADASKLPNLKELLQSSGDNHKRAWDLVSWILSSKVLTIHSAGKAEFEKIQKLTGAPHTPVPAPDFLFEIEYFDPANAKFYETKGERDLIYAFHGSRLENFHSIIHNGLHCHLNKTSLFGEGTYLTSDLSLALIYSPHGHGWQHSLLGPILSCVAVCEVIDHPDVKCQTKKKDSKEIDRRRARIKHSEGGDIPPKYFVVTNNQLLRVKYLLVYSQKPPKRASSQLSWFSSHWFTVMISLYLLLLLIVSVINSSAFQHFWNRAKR
Briefly: ARTD profiling, ARTD15.

The target in assay [4] is T3, ARTD4/PARP4 (Homo sapiens, UniProt Q9UKK3).
T3 sequence (Q9UKK3 369-573 limits assumed): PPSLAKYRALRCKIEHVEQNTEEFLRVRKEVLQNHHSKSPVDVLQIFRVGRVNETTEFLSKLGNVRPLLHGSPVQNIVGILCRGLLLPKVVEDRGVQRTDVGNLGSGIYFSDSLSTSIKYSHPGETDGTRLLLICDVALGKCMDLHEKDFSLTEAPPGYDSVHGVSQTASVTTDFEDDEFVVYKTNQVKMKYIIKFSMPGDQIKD
The experiment in a line: ARTD profiling, ARTD4.

Assay [5] has as its system Akt. Briefly: Kinase functional assay (mobility shift), Akt. Format: biochemical.
For assay [6], the target named is CDK9 (Homo sapiens, UniProt P50750). The experiment in a line: Kinase functional assay (mobility shift), CDK9. Format: biochemical. The settings on record: read-out: CDK9 (% Inhib.); for inhibition at 1 µM: 1 µM compound, Table S3; for inhibition at 10 µM: 10 µM compound, Table S4.
Chain of CDK9 (P50750 whole entry, species assumed): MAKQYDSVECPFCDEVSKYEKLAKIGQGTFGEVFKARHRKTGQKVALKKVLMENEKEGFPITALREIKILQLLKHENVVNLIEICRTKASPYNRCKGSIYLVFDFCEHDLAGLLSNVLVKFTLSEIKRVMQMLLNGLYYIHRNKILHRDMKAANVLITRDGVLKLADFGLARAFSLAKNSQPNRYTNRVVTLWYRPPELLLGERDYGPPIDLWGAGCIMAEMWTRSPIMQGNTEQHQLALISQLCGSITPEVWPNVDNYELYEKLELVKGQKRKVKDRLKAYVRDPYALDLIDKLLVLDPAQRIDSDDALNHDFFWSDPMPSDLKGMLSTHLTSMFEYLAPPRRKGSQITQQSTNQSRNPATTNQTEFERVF
Chain of CDK9 (O60563 whole entry partner, species assumed): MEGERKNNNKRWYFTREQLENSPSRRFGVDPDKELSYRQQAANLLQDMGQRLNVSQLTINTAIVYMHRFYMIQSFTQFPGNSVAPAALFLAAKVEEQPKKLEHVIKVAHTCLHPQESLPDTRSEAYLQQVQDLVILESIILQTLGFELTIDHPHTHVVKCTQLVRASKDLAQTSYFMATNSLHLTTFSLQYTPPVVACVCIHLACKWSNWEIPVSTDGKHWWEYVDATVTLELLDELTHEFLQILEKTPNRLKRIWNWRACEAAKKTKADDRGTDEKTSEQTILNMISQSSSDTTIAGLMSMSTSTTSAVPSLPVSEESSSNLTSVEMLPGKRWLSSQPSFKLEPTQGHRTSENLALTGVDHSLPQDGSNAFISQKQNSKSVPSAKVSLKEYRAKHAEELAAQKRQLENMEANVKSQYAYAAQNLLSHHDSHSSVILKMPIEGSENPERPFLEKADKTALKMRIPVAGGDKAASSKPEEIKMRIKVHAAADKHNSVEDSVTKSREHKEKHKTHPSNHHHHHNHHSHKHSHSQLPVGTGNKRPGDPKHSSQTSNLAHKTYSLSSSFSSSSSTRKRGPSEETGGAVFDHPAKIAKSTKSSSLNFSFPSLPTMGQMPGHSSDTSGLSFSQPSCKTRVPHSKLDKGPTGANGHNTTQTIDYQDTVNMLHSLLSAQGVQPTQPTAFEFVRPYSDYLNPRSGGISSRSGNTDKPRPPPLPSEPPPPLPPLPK
In assay [7] the target is GSK3β (Homo sapiens, UniProt P49841). The experiment in a line: Kinase functional assay (mobility shift), GSK3β. The settings on record: read-out: GSK3β (% Inhib.); for inhibition at 1 µM: 1 µM compound, Table S3; for inhibition at 10 µM: 10 µM compound, Table S4. Format: biochemical.
Chain of GSK3β (P49841 whole entry, species assumed): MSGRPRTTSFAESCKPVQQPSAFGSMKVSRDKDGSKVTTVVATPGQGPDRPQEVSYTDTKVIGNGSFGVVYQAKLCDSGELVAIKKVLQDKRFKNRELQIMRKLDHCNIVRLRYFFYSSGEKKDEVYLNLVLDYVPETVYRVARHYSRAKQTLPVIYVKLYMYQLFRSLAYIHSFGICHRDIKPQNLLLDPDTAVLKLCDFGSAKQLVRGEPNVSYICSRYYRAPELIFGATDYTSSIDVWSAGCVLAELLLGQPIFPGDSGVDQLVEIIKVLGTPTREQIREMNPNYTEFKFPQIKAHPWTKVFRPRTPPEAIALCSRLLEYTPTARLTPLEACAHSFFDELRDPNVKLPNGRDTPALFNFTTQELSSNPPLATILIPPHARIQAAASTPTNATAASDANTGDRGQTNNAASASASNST
In assay [8] the target is T4, ARTD3/PARP3 (Homo sapiens, UniProt Q9Y6F1).
T4 sequence (Q9Y6F1 1-533): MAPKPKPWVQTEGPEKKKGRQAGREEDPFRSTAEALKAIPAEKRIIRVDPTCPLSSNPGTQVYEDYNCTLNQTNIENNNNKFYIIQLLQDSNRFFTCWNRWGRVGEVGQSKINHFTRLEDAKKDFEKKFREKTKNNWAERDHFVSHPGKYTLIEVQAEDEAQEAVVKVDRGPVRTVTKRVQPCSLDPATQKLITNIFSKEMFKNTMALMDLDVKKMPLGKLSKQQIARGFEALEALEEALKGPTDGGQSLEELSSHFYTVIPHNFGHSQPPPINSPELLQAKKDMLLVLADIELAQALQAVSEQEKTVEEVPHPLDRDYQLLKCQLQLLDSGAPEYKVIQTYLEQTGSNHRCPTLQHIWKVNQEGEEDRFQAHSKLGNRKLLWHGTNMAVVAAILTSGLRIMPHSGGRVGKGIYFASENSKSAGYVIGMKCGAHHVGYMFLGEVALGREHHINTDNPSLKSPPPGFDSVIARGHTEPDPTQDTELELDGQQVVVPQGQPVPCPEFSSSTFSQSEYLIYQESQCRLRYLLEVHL
The experiment in a line: ARTD profiling, ARTD3. Format: biochemical. The settings on record: NAD+ 500 nM. The procedure: as §1, §2

Chain of ARTD5/TNKS1 (O95271 1112-1317): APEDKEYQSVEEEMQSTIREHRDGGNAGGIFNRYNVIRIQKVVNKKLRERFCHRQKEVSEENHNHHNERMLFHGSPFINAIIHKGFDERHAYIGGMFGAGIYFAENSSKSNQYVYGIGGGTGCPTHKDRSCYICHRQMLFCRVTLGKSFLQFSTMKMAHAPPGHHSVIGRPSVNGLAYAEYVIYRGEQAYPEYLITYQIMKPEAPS

What is called IC50 is the concentration needed to halve the response being measured. On to `O=c1[nH]c(-c2ccc(N3CCCCC3)cc2)nc2ccccc12` [Compound 30], for which the IC50 in assay [1] was 30 nM; in assay [2], > 10 µM; in assay [3], > 10 µM; in assay [4], 12 µM; in assay [8], 23 µM. Moreover, the “AKT (% Inhib.)” value was 1 ± 1% in assay [5] (1 µM compound, Table S3) and 2 ± 2% in assay [5] (10 µM compound, Table S4). Besides, the inhibition at 1 µM in assay [6] was determined as 12 ± 4%; in assay [7], 1 ± 1%. The inhibition at 10 µM in assay [6] was 31 ± 4%; in assay [7] it was 11 ± 3%.

As to `CCN(CC)c1ccc(-c2nc3ccccc3c(=O)[nH]2)cc1` [Compound 32], the IC50 in assay [1] is 11 nM; in assay [2] it was > 10 µM; in assay [3], > 10 µM; in assay [4], 5.5 µM; in assay [8], 2.1 µM. In addition, the “AKT (% Inhib.)” value in assay [5] (1 µM compound, Table S3) came out at 1 ± 1%; in assay [5] (10 µM compound, Table S4), 48 ± 4%. In addition, the inhibition at 1 µM was 13 ± 4% in assay [6] and 1 ± 1% in assay [7]. Besides, the inhibition at 10 µM in assay [6] amounted to 16 ± 3%; in assay [7], 4 ± 4%.
